The structures appear in SMILES notation. Where a name gives a salt, the structure may show the parent alone.

Chain of human neurokinin-1-receptor (NK1R) (P25103 whole entry): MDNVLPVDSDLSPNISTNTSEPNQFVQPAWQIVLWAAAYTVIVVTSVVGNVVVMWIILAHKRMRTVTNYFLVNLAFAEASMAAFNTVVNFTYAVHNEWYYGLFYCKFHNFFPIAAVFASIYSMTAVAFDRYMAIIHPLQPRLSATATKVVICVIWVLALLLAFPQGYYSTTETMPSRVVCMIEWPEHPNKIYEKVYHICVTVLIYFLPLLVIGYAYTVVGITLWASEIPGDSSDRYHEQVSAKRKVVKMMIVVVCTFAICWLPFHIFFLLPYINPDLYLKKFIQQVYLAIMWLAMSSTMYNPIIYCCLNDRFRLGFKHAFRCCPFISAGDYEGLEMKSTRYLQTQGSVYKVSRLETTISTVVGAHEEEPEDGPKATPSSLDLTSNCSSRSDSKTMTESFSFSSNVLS

One experiment has as its target human neurokinin-1-receptor (NK1R) (Homo sapiens, UniProt P25103). The experiment can be described thus: biochemical. The note with it: 125I-SP binding; cloned human NK1R expressed in COS or CHO; 1 hour at 4° C. or room temperature.
Experimental: To express the cloned human neurokinin-1-receptor (NK1R) transiently in COS, the cDNA for the human NK1R was cloned into the expression vector pCDM9 which was derived from pCDM8 (INVITROGEN) by inserting the ampicillin resistance gene (nucleotide 1973 to 2964 from BLUESCRIPT SK+ (trademark, [sequence], La Jolla, Calif., USA)) into the Sac II site. Transfection of 20 ug of the plasmid DNA into 10 million COS cells was achieved by electroporation in 800 μl of transfection buffer (135 mM NaCl, 1.2 mM CaCl2, 1.2 mM MgCl2, 2.4 mM K2 HPO4, 0.6 mM KH2 PO4, 10 mM glucose, 10 mM N-2-hydroxyethyl-piperazine-N'-2-ethane sulphonic acid (HEPES) pH 7.4) at 260 V and 950 μF using the IBI GENEZAPPER (trademark IBI, New Haven, Conn., USA). The cells were incubated in 10% fetal calf serum, 2 mM glutamine, 100 U/ml penicillin-streptomycin, and 90% DMEM media (GIBCO, Grand Island, N.Y., USA) in 5% CO2 at 37° C. for three days before the binding assay.
The binding assay of human NK1R expressed in either COS or CHO cells is based on the use of ^125 I-substance P (^125 I-SP from DU PONT, Boston, Mass.) as a radioactively labeled ligand which competes with unlabeled substance P or any other ligand for binding to the human NK1R. […] In the binding assay, 200 μl of cells were added to a tube containing 20 μl of 1.5 to 2.5 nM of ^125 I-SP and 20 μl of unlabeled substance P or any other test compound. The tubes were incubated at 4° C. or at room temperature for 1 hour with gentle shaking. The bound radioactivity was separated from unbound radioactivity by GF/C filter (BRANDEL, Gaithersburg, Md.) which was pre-wetted with 0.1% polyethylenimine. The filter was washed with 3 ml of wash buffer (50 mM Tris pH 7.5, 5 mM MnCl2, 150 mM NaCl) three times and its radioactivity was determined by gamma counter.
In general, IC50 refers to the point on the concentration scale where inhibition reaches its midpoint. The compound `CC(=O)NC(Cc1csc2ccccc12)C(O)C=Cc1cc(C(F)(F)F)cc(C(F)(F)F)c1` (single isomer, unassigned) [2 (Isomer A), 2-Acetamido-1-(3-benzo[b]thienyl)-5-(3,5-bistrifluoromethylphenyl)-4-penten-3-ol] yielded a 50% inhibitory concentration (IC50) of 0.7 µM.
In the case of `CC(=O)NC(Cc1csc2ccccc12)C(O)C=Cc1cc(C(F)(F)F)cc(C(F)(F)F)c1` (single isomer, unassigned) [2 (Isomer B), 2-Acetamido-1-(3-benzo[b]thienyl)-5-(3,5-bistrifluoromethylphenyl)-4-penten-3-ol], the IC50 worked out at 0.3 µM. This IC50 is about 2.3-fold lower than that of the compound before.
With `COC(C=Cc1cc(C(F)(F)F)cc(C(F)(F)F)c1)C(Cc1csc2ccccc12)NC(C)=O` (single isomer, unassigned) [3 (Isomer B), 2-Acetamido-1-(3-benzo[b]thienyl)-5-(3,5-bistrifluoromethylphenyl)-3-methoxy-4-pentene], the IC50 worked out at 0.35 µM.
With `CC(=O)NC(Cc1csc2ccccc12)C(O)CCc1cc(C(F)(F)F)cc(C(F)(F)F)c1` (single isomer, unassigned) [5 (Isomer A), 2-Acetamido-1-(3-benzo[b]thienyl)-5-(3,5-bistrifluoromethylphenyl)-3-pentanol], the concentration for half-maximal inhibition (IC50) came out at 0.19 µM.
Regarding `CC(=O)NC(Cc1csc2ccccc12)C(O)CCc1cc(C(F)(F)F)cc(C(F)(F)F)c1` (single isomer, unassigned) [5 (Isomer B), 2-Acetamido-1-(3-benzo[b]thienyl)-5-(3,5-bistrifluoromethylphenyl)-3-pentanol], the IC50 was found to be 0.5 µM.
Take `COC(CCc1cc(C(F)(F)F)cc(C(F)(F)F)c1)C(Cc1csc2ccccc12)NC(C)=O` (single isomer, unassigned) [6 (Isomer A), 2-Acetamido-1-(3-benzo[b]thienyl)-5-(3,5-bistrifluoromethylphenyl)-3-methoxypentane]: the IC50 amounted to 0.5 µM.
The same measure, in the same setting: for `COC(CCc1cc(C(F)(F)F)cc(C(F)(F)F)c1)C(Cc1csc2ccccc12)NC(C)=O` (single isomer, unassigned) [6 (Isomer B), 2-Acetamido-1-(3-benzo[b]thienyl)-5-(3,5-bistrifluoromethylphenyl)-3-methoxypentane] the value was 0.03 µM; for `CC(=O)NC(Cc1csc2ccccc12)C(CCc1cc(C(F)(F)F)cc(C(F)(F)F)c1)=NO` (single isomer, unassigned) [14 (Isomer A), 2-Acetamido-1-(3-benzo[b]thienyl)-5-(3,5-bistrifluoromethylphenyl)-3-oximinopentane], 0.2 µM; for `CC(=O)NC(Cc1csc2ccccc12)C(CCc1cc(C(F)(F)F)cc(C(F)(F)F)c1)=NO` (single isomer, unassigned) [14 (Isomer B), 2-Acetamido-1-(3-benzo[b]thienyl)-5-(3,5-bistrifluoromethylphenyl)-3-oximinopentane], 0.3 µM.
As for `CC(=O)NC(Cc1csc2ccccc12)C(=O)C=Cc1cc(C(F)(F)F)cc(C(F)(F)F)c1` (stereo not drawn) [Example 1, 2-Acetamido-1-(3-benzo[b]thienyl)-5-(3,5-bistrifluoromethylphenyl)-4-penten-3-one], the IC50 was found to be 0.35 µM.
The same measure, in the same setting: to `CC(=O)NC(Cc1csc2ccccc12)C(=O)CCc1cc(C(F)(F)F)cc(C(F)(F)F)c1` (stereo not drawn) [Example 4, 2-Acetamido-1-(3-benzo[b]thienyl)-5-(3,5-bistrifluoromethylphenyl)-3-pentanone] belongs 0.02 µM.
Regarding `CN(C)CC(=O)NC(Cc1csc2ccccc12)C(=O)CCc1cc(C(F)(F)F)cc(C(F)(F)F)c1` (stereo not drawn) [Example 9, 1-(3-Benzo[b]thienyl)-5-(3,5-bistrifluoromethylphenyl)-2-(N,N-dimethylglycinamido)-3-pentanone Hydrochloride], the IC50 came to 0.03 µM.
On to `CC(C)(C)OC(=O)NC(Cc1c[nH]c2ccccc12)C(=O)CCc1cc(C(F)(F)F)cc(C(F)(F)F)c1` (stereo not drawn) [Example 10, 5-(3,5-Bistrifluoromethylphenyl)-2-t-butyloxycarbonylamino-1-(3-indolyl)-3-pentanone], for which the IC50 came out at 0.04 µM.
Compound `NC(Cc1c[nH]c2ccccc12)C(=O)CCc1cc(C(F)(F)F)cc(C(F)(F)F)c1` (stereo not drawn) [Example 11, 2-Amino-5-(3,5-bistrifluoromethylphenyl)-1-(3-indolyl)-3-pentanone Hydrochloride] came in with an IC50 of 0.015 µM.
Same read-out and setting: to `O=C(NC(Cc1c[nH]c2ccccc12)C(=O)CCc1cc(C(F)(F)F)cc(C(F)(F)F)c1)c1ccccc1` (stereo not drawn) [Example 13, 2-Benzamido-5-(3,5-bistrifluoromethylphenyl)-1-(3-indolyl)-3-pentanone] belongs 0.014 µM; to `CC(=O)NC(Cc1ccc(Cl)c(Cl)c1)C(=O)CCc1cc(C(F)(F)F)cc(C(F)(F)F)c1` (stereo not drawn) [Example 15, 2-Acetamido-5-(3,5-bistrifluoromethylphenyl)-1-(3,4-dichlorophenyl)-3-pentanone], 0.04 µM.
Same read-out and setting: for `CN(C)CCCC(=O)NC(Cc1c[nH]c2ccccc12)C(=O)CCc1cc(C(F)(F)F)cc(C(F)(F)F)c1` (stereo not drawn) [Example 17, 5-(3,5-Bistrifluoromethylphenyl)-2-(4-(N,N-dimethylamino)butyramido)-1-(3-indolyl)-3-pentanone Hydrochloride] the value was 0.0004 µM; for `CN(C)CCCCC(=O)NC(Cc1c[nH]c2ccccc12)C(=O)CCc1cc(C(F)(F)F)cc(C(F)(F)F)c1` (stereo not drawn) [Example 18, 5-(3,5-Bistrifluoromethylphenyl)-2-(5-(N,N-dimethylamino)pentanamido)-1-(3-indolyl)-3-pentanone], 0.0006 µM; for `O=C(NC(Cc1c[nH]c2ccccc12)C(=O)CCc1cc(C(F)(F)F)cc(C(F)(F)F)c1)C1CC1` (stereo not drawn) [Example 19, 5-(3,5-Bistrifluoromethylphenyl)-2-(cyclopropylcarboxamido)-1-(3-indolyl)-3-pentanone], 0.002 µM.
Consider `CC(CC(=O)NC(Cc1c[nH]c2ccccc12)C(=O)CCc1cc(C(F)(F)F)cc(C(F)(F)F)c1)c1ccccc1` (stereo not drawn) [Example 20, 5-(3,5-Bistrifluoromethylphenyl)-2-(3-phenylbutyramido)-1-(3-indolyl)-3-pentanone], for which the half-maximal inhibitory concentration (IC50) was found to be 0.002 µM.

The experiment is the same for the next values; noted with them: 125I-SP binding; cloned human NK1R expressed in COS or CHO; 1 hour at 4° C. or room temperature; cell prints μM in nM column.
In the case of `COC(C=Cc1cc(C(F)(F)F)cc(C(F)(F)F)c1)C(Cc1csc2ccccc12)NC(C)=O` (single isomer, unassigned) [3 (Isomer A), 2-Acetamido-1-(3-benzo[b]thienyl)-5-(3,5-bistrifluoromethylphenyl)-3-methoxy-4-pentene], the IC50 was > 1 µM.

The record behind these values is patent US5328927A, “Hetercyclic compounds, processes for their preparation and pharmaceutical compositions containing them” (Merck Sharpe & Dohme, Ltd., priority 1992, dated 1994).
